Source: ChEMBL document CHEMBL4699661, “Synthesis and Biological Characterization of Cyclic Disulfide-Containing Peptide Analogs of the Multifunctional Opioid/Neuropeptide FF Receptor Agonists That Produce Long-Lasting and Nontolerant Antinociception” (J Med Chem, 2020)
Calls of active or inactive are those of the source. The calls are words filed in the database; no cut-off is given here. Non-standard residues stand in square brackets, D forms with d. Residues, ends and D or L forms follow the SMILES beside them.

What was measured:
[1] = Ratio of drug level in brain to plasma in mouse; format: ADME; conditions: read-out: BPR
[2] = target: Mu-type opioid receptor (Homo sapiens, UniProt P35372); assay: Agonist activity at mu opioid receptor (unknown origin) expressed in HEK293-A cells assessed as inhibition of forskolin-stimulated cAMP accumulation incubated for 30 mins by competition PKA binding assay; format: functional, cell-based
[3] = target: Kappa-type opioid receptor (Homo sapiens, UniProt P41145); assay: Agonist activity at kappa opioid receptor (unknown origin) expressed in HEK293-A cells assessed as inhibition of forskolin-stimulated cAMP accumulation incubated for 30 mins by competition PKA binding assay; format: functional, cell-based
[4] = target: T1, Delta-type opioid receptor (Homo sapiens, UniProt P41143); assay: Agonist activity at delta opioid receptor (unknown origin) expressed in HEK293-A cells assessed as inhibition of forskolin-stimulated cAMP accumulation incubated for 30 mins by competition PKA binding assay; format: functional, cell-based
[5] = target: T1, Delta-type opioid receptor; assay: Agonist activity at delta opioid receptor (unknown origin) expressed in HEK293-A cells assessed as inhibition of forskolin-stimulated cAMP accumulation incubated for 30 mins by competition PKA binding assay relative to control; format: functional, cell-based
[6] = target: T2, Neuropeptide FF receptor 1 (Homo sapiens, UniProt Q9GZQ6); assay: Agonist activity at NPFFR1 (unknown origin) expressed in HEK293-A cells assessed as inhibition of forskolin-stimulated cAMP accumulation incubated for 30 mins by competition PKA binding assay; format: functional, cell-based
[7] = target: T2, Neuropeptide FF receptor 1; assay: Agonist activity at NPFFR1 (unknown origin) expressed in HEK293-A cells assessed as inhibition of forskolin-stimulated cAMP accumulation incubated for 30 mins by competition PKA binding assay relative to control; format: functional, cell-based; conditions: filed as agonist
[8] = target: T3, Neuropeptide FF receptor 2 (Homo sapiens, UniProt Q9Y5X5); assay: Agonist activity at NPFFR2 (unknown origin) expressed in HEK293-A cells assessed as inhibition of forskolin-stimulated cAMP accumulation incubated for 30 mins by competition PKA binding assay; format: functional, cell-based
[9] = target: T3, Neuropeptide FF receptor 2; assay: Agonist activity at NPFFR2 (unknown origin) expressed in HEK293-A cells assessed as inhibition of forskolin-stimulated cAMP accumulation incubated for 30 mins by competition PKA binding assay relative to control; format: functional, cell-based; conditions: filed as agonist
[10] = Half life in 100% mouse plasma at 0.01 mM by RP-HPLC analysis; format: ADME, cell-free
[11] = system: Mus musculus; assay: Analgesic activity in icv dosed Kunming mouse by radiant heat tail flick test; format: functional
[12] = system: Mus musculus; assay: Analgesic activity in icv dosed Kunming mouse assessed as time duration during which supraspinal antinociception lasted by radiant heat tail flick test; format: functional
[13] = system: Mus musculus; assay: Analgesic activity in Kunming mouse assessed as increase in antinociceptive effect at 0.03 pmol, icv pre-treated with 10 nmol, icv NPFF receptor antagonist RF9 by radiant heat tail flick test; format: functional, organism-based
[14] = system: Mus musculus; assay: Analgesic activity in sc dosed Kunming mouse by radiant heat tail flick test; format: functional
[15] = system: Mus musculus; assay: Analgesic activity in sc dosed Kunming mouse assessed as time duration during which antinociception lasted by radiant heat tail flick test; format: functional
[16] = system: Mus musculus; assay: Analgesic activity in Kunming mouse at 8.94 umol/kg, sc pre-treated with 1 mg/kg, sc opioid receptor antagonist naloxone by radiant heat tail flick test; format: functional, organism-based; conditions: dose 8.94 µmol/kg
[17] = system: Mus musculus; assay: Analgesic activity in Kunming mouse at 8.94 umol/kg, sc pre-treated with 1 mg/kg, sc peripherally restricted opioid receptor antagonist naloxone methiodide by radiant heat tail flick test; format: functional, organism-based; conditions: dose 8.94 µmol/kg
[18] = system: Mus musculus; assay: Analgesic activity in Kunming mouse at 8.94 umol/kg, sc pre-treated with 5 nmol, icv peripherally restricted opioid receptor antagonist naloxone methiodide by radiant heat tail flick test; format: functional, organism-based; conditions: dose 8.94 µmol/kg
[19] = system: Mus musculus; assay: Analgesic activity in Kunming mouse at 2.68 umol/kg, sc pre-treated with 1 mg/kg, sc opioid receptor antagonist naloxone by radiant heat tail flick test; format: functional, organism-based; conditions: dose 2.68 µmol/kg
[20] = system: Mus musculus; assay: Analgesic activity in Kunming mouse at 2.68 umol/kg, sc pre-treated with 1 mg/kg, sc peripherally restricted opioid receptor antagonist naloxone methiodide by radiant heat tail flick test; format: functional, organism-based; conditions: dose 2.68 µmol/kg
[21] = system: Mus musculus; assay: Analgesic activity in Kunming mouse at 2.68 umol/kg, sc pre-treated with 5 nmol, icv peripherally restricted opioid receptor antagonist naloxone methiodide by radiant heat tail flick test; format: functional, organism-based; conditions: dose 2.68 µmol/kg
[22] = system: Mus musculus; assay: Analgesic activity in NPFF2 -/- C57BL/6 mouse at 0.89 umol/kg, sc by radiant heat tail flick test relative to wild type mouse; format: functional, organism-based; conditions: dose 0.89 µmol/kg
[23] = system: Mus musculus; assay: Analgesic activity in NPFF2 -/- C57BL/6 mouse at 0.09 umol/kg, sc by radiant heat tail flick test relative to wild type mouse; format: functional, organism-based; conditions: dose 0.09 µmol/kg
[24] = system: Mus musculus; assay: Analgesic activity in sc dosed Kunming mouse dosed once daily for 8 consecutive days by radiant heat tail flick test; format: functional, organism-based; conditions: time 8.0 day
[25] = system: Mus musculus; assay: Analgesic activity in sc dosed Kunming mouse pre-treated with 1 mg/kg, sc opioid receptor antagonist naloxone by radiant heat tail flick test; format: functional, organism-based
[26] = system: Mus musculus; assay: Analgesic activity in sc dosed Kunming mouse pre-treated with 1 mg/kg, sc peripherally restricted opioid receptor antagonist naloxone methiodide by radiant heat tail flick test; format: functional, organism-based
[27] = system: Mus musculus; assay: Analgesic activity in sc dosed Kunming mouse pre-treated with 5 nmol, icv peripherally restricted opioid receptor antagonist naloxone methiodide by radiant heat tail flick test; format: functional, organism-based
[28] = Half life in 15% mouse brain at 0.01 mM by RP-HPLC analysis; format: ADME, tissue-based
[29] = system: Mus musculus; assay: Analgesic activity in Kunming mouse at 30 pmol, icv by radiant heat tail flick test; format: functional
[30] = system: Mus musculus; assay: Analgesic activity in Kunming mouse at 0.09 umol/kg, sc by radiant heat tail flick test; format: functional; conditions: dose 0.09 µmol/kg
[31] = system: Mus musculus; assay: Analgesic activity in icv dosed Kunming mouse dosed once daily for 8 consecutive days by radiant heat tail flick test; format: functional, organism-based; conditions: time 8.0 day
[32] = Toxicity in Kunming mouse assessed as effect on motor coordination at 30 pmol, icv by rotarod test; conditions: in vivo, icv_or_intrathecal
[33] = Toxicity in Kunming mouse assessed as effect on motor coordination at 0.09 umol/kg, sc by rotarod test; format: organism-based; conditions: in vivo, dose 0.09 µmol/kg
[34] = Toxicity in Kunming mouse assessed as increase in total travelled distance at 0.09 umol/kg, sc by open field assay; format: organism-based; conditions: in vivo, dose 0.09 µmol/kg
[35] = Toxicity in Kunming mouse assessed as activation of reward circuits at 0.09 umol/kg, sc by CPP test; format: organism-based; conditions: in vivo, dose 0.09 µmol/kg
[36] = Toxicity in Kunming mouse assessed as increase in jumping counts after naloxone-injection at 0.09 umol/kg, sc by naloxone-precipitated withdrawal test; format: organism-based; conditions: in vivo, dose 0.09 µmol/kg
[37] = Induction of constipation in sc dosed Kunming mouse assessed as inhibition of gastrointestinal motility by charcoal based gastrointestinal motility test; format: organism-based; conditions: in vivo
[38] = Safety index, ratio of ED50 for induction of constipation in sc dosed Kunming mouse to ED50 for analgesic activity in sc dosed Kunming mouse; format: organism-based; conditions: in vivo, read-out: Ratio ED50

SMILES | EC50 [2] [nM] | EC50 ([3]; read-out: EC50) [nM] | EC50 [4] [nM] | Emax ([5]; filed as agonist) [%] | EC50 [6] [nM] | Emax [7] [%] | EC50 [8] [nM] | Emax [9] [%] | half-life at 10 µM [10] [min] | ED50 [11] [pmol] | Time [12] [h] | Activity [13] | ED50 [14] [µmol/kg] | Time [15] [h] | Activity [24] | half-life at 10 µM [28] [min] | Activity [31] | other results
CN1CC[C@]23c4c5ccc(O)c4O[C@H]2[C@@H](O[C@@H]2O[C@H](C(=O)O)[C@@H](O)[C@H](O)[C@H]2O)C=C[C@H]3[C@H]1C5 [MORPHINE GLUCURONIDE] |  |  |  |  |  |  |  |  |  |  |  |  |  |  |  |  |  | Kp [1]: 0.05
N=C(N)NCCC[C@H](NC(=O)[C@H](CCC(N)=O)NC(=O)[C@@H]1CCCN1C(=O)[C@H](CS)NC(=O)[C@H](Cc1ccccc1)NC(=O)CNC(=O)[C@@H](CS)NC(=O)[C@@H](N)Cc1ccc(O)cc1)C(=O)N[C@@H](Cc1ccccc1)C(N)=O | 221 | 581 | 514 | 46.1 | 17.5 | 78.5 | 532 | 46.6 | 27.9 | 0.6 | 3 | Active | 0.13 | 3 | Active |  |  | Activity [16]: inactive; Activity [17]: inactive; Activity [18]: Active; Activity [19]: inactive; Activity [20]: inactive; Activity [21]: Active; Activity [22]: Active; Activity [23]: Active
N=C(N)NCCC[C@H](NC(=O)[C@H](CCC(N)=O)NC(=O)[C@@H]1CCCN1C(=O)[C@H](CS)NC(=O)[C@H](Cc1ccccc1)NC(=O)CNC(=O)[C@H](CS)NC(=O)[C@@H](N)Cc1ccc(O)cc1)C(=O)N[C@@H](Cc1ccccc1)C(N)=O | 1550 | 184 | 218 |  | 24.9 | 79.7 | 752 | 62.9 | 29.6 | 150 |  | Active | 0.24 | 1.5 | Active |  |  | Emax [5]: 35.8%; Activity [25]: inactive; Activity [26]: inactive; Activity [27]: Active
N=C(N)NCCC[C@H](NC(=O)[C@H](CCC(N)=O)NC(=O)[C@@H]1CCCN1C(=O)[C@H]1CSSC[C@@H](NC(=O)[C@@H](N)Cc2ccc(O)cc2)C(=O)NCC(=O)N[C@@H](Cc2ccccc2)C(=O)N1)C(=O)N[C@@H](Cc1ccccc1)C(N)=O | 196 | 2460 | 200 | 63.6 | 361 | 75.6 | 192 | 74.6 | 14.6 | 0.001 | 3 | Active | 0.002 | 4 | Active | 255 | Active | Activity [12]: Dose-dependent effect; MPE [29]: 90%; Activity [14]: Dose-dependent effect; Activity [30]: 80%; Activity [32]: Non-Toxic; Activity [33]: Non-Toxic; Activity [34]: Non-Toxic; Activity [35]: Toxic; Activity [36]: Non-Toxic; Activity [37]: Dose-dependent effect; ED50 [37]: 0.07 µmol/kg; selectivity ratio [38]: 35
N=C(N)NCCC[C@H](NC(=O)[C@H](CCC(N)=O)NC(=O)[C@@H]1CCCN1C(=O)[C@@H]1CSSC[C@H](NC(=O)[C@@H](N)Cc2ccc(O)cc2)C(=O)NCC(=O)N[C@@H](Cc2ccccc2)C(=O)N1)C(=O)N[C@@H](Cc1ccccc1)C(N)=O | 788 | 307 | 162 | 63.6 | 32.5 | 80.2 | 120 | 79.6 | 28.9 | 182 |  | Active | 0.18 | 1.5 | Active | 58 | Active | 
N=C(N)NCCC[C@H](NC(=O)[C@H](CCC(N)=O)NC(=O)[C@@H]1CCCN1C(=O)[C@@H](CS)NC(=O)[C@H](Cc1ccccc1)NC(=O)CNC(=O)[C@@H](CS)NC(=O)[C@@H](N)Cc1ccc(O)cc1)C(=O)N[C@@H](Cc1ccccc1)C(N)=O | 171 | 2300 | 219 | 58.3 | 788 | 85.7 | 719 | 58.4 | 30.9 | 1.13 | 3 | Active | 0.06 | 3 | Active |  |  | 
CN1CC[C@]23c4c5ccc(O)c4O[C@H]2[C@@H](O)C=C[C@H]3[C@H]1C5 [MORPHINE] |  |  |  |  |  |  |  |  |  |  |  |  |  |  |  |  |  | Kp [1]: 0.74
N=C(N)NCCC[C@H](NC(=O)[C@H](CCC(N)=O)NC(=O)[C@@H]1CCCN1C(=O)[C@@H](CS)NC(=O)[C@H](Cc1ccccc1)NC(=O)CNC(=O)[C@H](CS)NC(=O)[C@@H](N)Cc1ccc(O)cc1)C(=O)N[C@@H](Cc1ccccc1)C(N)=O | 178 | 75.1 | 199 | 50.4 | 216 | 81.8 | 697 | 55.1 | 31.4 | 6.42 | 3 | Active | 0.1 | 3 | Active |  |  | EC50 ([3]; read-out: pEC50 (converted)): 74.1 nM; Activity [25]: inactive; Activity [26]: inactive; Activity [27]: Active
C[C@@H](NC(=O)[C@@H](N)Cc1ccc(O)cc1)C(=O)NCC(=O)N[C@@H](Cc1ccccc1)C(=O)N[C@@H](CCC(N)=O)C(=O)N1CCC[C@H]1C(=O)N[C@@H](CCC(N)=O)C(=O)N[C@@H](CCCNC(=N)N)C(=O)N[C@@H](Cc1ccccc1)C(N)=O (H-Y[dA]GFQPQRF-NH2) |  |  |  |  |  |  |  |  |  | 390 |  | Active | 1.37 |  | Active |  |  | 
N=C(N)NCCC[C@H](NC(=O)[C@H](CCC(N)=O)NC(=O)[C@@H]1CCCN1C(=O)[C@H]1CSSC[C@H](NC(=O)[C@@H](N)Cc2ccc(O)cc2)C(=O)NCC(=O)N[C@@H](Cc2ccccc2)C(=O)N1)C(=O)N[C@@H](Cc1ccccc1)C(N)=O | 3830 | 743 | 490 | 60.3 | 354 | 82.8 | 168 | 61.6 | 17 | 0.21 | 3 | Active | 0.003 | 4 | Active | 229 | Active | 
